Assay results: PMC10350924, “Design, Synthesis, and Pharmacological Characterization of a Potent Soluble Epoxide Hydrolase Inhibitor for the Treatment of Acute Pancreatitis” (Journal of Medicinal Chemistry, 2023)
Values joined by “and” are separate entries in the source; they are usually repeats but may differ in a detail not shown here. Equal entries are not always repeated.

How the values were obtained:
Mouse plasma stability = format: in vitro ADME; conditions: 37 °C, 5 μM
Experimental: Mouse plasma is warmed to 37 °C for 10 min, mixed, and centrifuged to pellet any aggregated protein. Biotransformation is initiated by adding 1.25 μL of compound solution (5 μM final incubation concentration), and the incubation was carried out at 37 °C for 120 min in a Thermomixer comfort (Eppendorf, Hamburg, Germany). At each specified time point (0, 60, and 120 min), compounds were removed into 200 μL of ice-cold methanol containing IS to stop degradation. Finally, the concentration of the test compound was quantified by LC-MS. All experiments were performed in triplicate. Procaine (low stability) and procainamide (high stability) were used as controls.

[1] = UGTs/CYPs dual-activity mouse liver microsomal stability; format: in vitro ADME; conditions: for UGTs/CYPs dual-activity mouse liver microsomal stability: 5 μM, NADPH + UDP-GlcUA; for half-life at 5 µM / microsomal CLint at 1 h, 5 µM / half-life at 1 h, 5 µM: CD-1, mouse liver microsomes; for half-life at 5 µM / half-life at 1 h, 5 µM: 0.693/k, read-out: in vitro half-life; for microsomal CLint at 1 h, 5 µM: read-out: microsomal intrinsic clearance (CLint,micr)
Experimental: Initially, the chemical stability of the compounds was studied in phosphate buffer at pH 7.4. […] The same stability was evident in mouse plasma at two different time points (1 and 2 h, Table 2). In addition, all the compounds were subjected to an in vitro microsomal stability assay. In this assay, the metabolism of the parent compound over time (up to 60 min) was measured by liquid chromatography–mass spectrometry (LC–MS) in the presence of CYP450 and UGTs (uridine 5′-diphospho-glucuronosyltransferases) microsomal systems. The measurement of hepatic metabolism also allowed the determination of different pharmacokinetic parameters such as in vitro intrinsic clearance (CLint,micr) and to predict in vivo intrinsic clearance (CLint). The predicted in vivo CLint values were calculated using a microsomal protein value of 45 mg per gram of liver tissue and 87 g of liver per kg of body weight. The microsomal stability assay was validated using testosterone (low stability in the presence of NADPH), 2-naphthol (low stability using NADPH and UDPGA cofactors), and 3-(α-acetonylbenzyl)-4-hydroxy coumarin (high stability in dual-activity assay) as positive controls. To detect nonspecific protein binding or heat instability, the compounds were incubated without cofactors (negative control). Moreover, since microsomal concentrations > 2 mg mL^–1 are not recommended due to a potential negative impact of increased nonspecific binding on the rate of metabolism,[25] in our assay we used a low concentration of liver microsomes (0.5 mg mL^–1).
For microsomal stability assay, 25 μL of 5 mg mL^–1 mouse (CD-1) microsomes (Thermo Fisher Scientific, Bremen, Germany) were preincubated for 5 min at 37 °C with alamethicin and 2.5 μL of each sample (5 μM). The reaction started by adding a 50 μL mixture of 10 mM NADPH and UDP-GlcUA as cofactors (1:1 v/v) and was carried out at 37 °C for 15, 30, and 60 min in a Thermomixer comfort. The reaction was stopped by the addition of 200 μL of ice-cold methanol containing IS, and then samples were centrifuged at 14,680 rpm at 25 °C for 7 min (Eppendorf microcentrifuge 5424, Hamburg, Germany). The supernatants were collected and injected in LC-MS.
The control at 0 min was obtained by the addition of the organic solvent immediately after incubation with microsomes. Testosterone, 2-naphthol, and 3-(α-acetonylbenzyl)-4-hydroxy coumarin were used as the positive controls, while the negative control was prepared by incubation for up to 60 min without cofactors. The extent of metabolism is expressed as a percentage of the parent compound turnover. All experiments were performed in triplicate.

5-LOX = target: T1, 5-LOX (Homo sapiens, UniProt P09917); experiment: 5-LOX product formation in human activated PMNL (A23187); format: cell-based; design: Freshly isolated PMNL (5 × 10^6) suspended in PBS pH 7.4 with 1 mg/mL glucose were preincubated with the test compounds; endogenous in cells; host or cells: human PMNL from donor blood; remaining activity: dose or concentration left out as unconfirmed; conditions: for remaining activity at 10 µM: read-out: 5-LOX residual activity in PMNL (%) at 10 μM; for remaining activity: PMNL, read-out: 5-LO residual activity in PMNL (%)
T1 sequence (P09917 1-674): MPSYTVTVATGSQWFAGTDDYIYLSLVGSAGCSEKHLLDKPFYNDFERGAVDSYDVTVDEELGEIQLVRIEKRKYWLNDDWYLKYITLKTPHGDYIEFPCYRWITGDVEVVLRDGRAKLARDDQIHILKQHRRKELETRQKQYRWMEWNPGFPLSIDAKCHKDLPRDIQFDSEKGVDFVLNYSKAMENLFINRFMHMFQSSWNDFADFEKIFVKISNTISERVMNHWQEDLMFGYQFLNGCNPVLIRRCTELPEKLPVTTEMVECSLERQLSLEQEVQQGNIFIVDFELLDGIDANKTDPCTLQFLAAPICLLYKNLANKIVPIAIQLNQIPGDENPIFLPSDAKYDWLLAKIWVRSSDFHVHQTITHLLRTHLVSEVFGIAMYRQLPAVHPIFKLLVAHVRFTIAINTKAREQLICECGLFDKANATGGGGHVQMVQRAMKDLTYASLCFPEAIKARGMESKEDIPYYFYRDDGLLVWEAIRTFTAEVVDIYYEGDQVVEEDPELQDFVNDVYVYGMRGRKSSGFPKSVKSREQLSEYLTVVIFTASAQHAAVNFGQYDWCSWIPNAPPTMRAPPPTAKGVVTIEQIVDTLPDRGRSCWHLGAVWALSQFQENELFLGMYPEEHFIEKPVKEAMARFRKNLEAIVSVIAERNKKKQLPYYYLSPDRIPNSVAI
Experimental: Human PMNL were freshly isolated from leukocyte concentrates that were obtained from the Institute for Transfusion Medicine of the University Hospital Jena (Germany). […] These volunteers regularly donated blood (every 8–12 weeks) and were physically inspected by a clinician. […] Leukocytes were concentrated by centrifugation (4000g/20 min/20 °C) of freshly withdrawn blood. […] PMNL were obtained from the cell pellet. […] The reaction was stopped with an equal volume of methanol containing PGB1 (200 ng) as internal standard. Major 5-LOX products (all-trans isomers of LTB and 5-HETE, and additionally LTB4) were extracted and analyzed by RP-HPLC as described for the determination of cell-free 5-LOX activity.

| mouse plasma stability (Mouse plasma stability; 1.0 h) | mouse plasma stability (Mouse plasma stability; 2.0 h) | UGTs/CYPs dual-activity mouse liver microsomal stability ([1]; 0.25 h, 0.5 mg mL–1 microsomes) | UGTs/CYPs dual-activity mouse liver microsomal stability ([1]; 0.5 h) | UGTs/CYPs dual-activity mouse liver microsomal stability ([1]; 1.0 h) | half-life at 5 µM [1] | microsomal CLint at 1 h, 5 µM [1] | remaining activity at 10 µM (5-LOX; human activated PMNL) | remaining activity (5-LOX) | IC50 (5-LOX; human activated PMNL) | SMILES | half-life at 1 h, 5 µM [1] |
| --- | --- | --- | --- | --- | --- | --- | --- | --- | --- | --- | --- |
| 100.3 ± 0.2% | 102.2 ± 4.8% | 8.4 ± 0.3% | 3.2 ± 1.0% | 2.1 ± 0.7% | 11.9 min | 117 µL/min/mg | 59.4 ± 6.7% | 59.4 ± 6.7% | – | O=C(NCC12C[C@H]3C[C@@H](C1)C[C@@H](C2)C3)Nc1ccc2c(ccn2Cc2ccc(F)cc2)c1 [Compound 27, 1-(((3R,5R,7R)-Adamantan-1-yl)methyl)-3-(1-(4-fluorobenzyl)-1H-indol-5-yl)urea] | – |
| 97.3 ± 0.7% | 100.7 ± 2.3% | 21.3 ± 0.9% | 10.9 ± 0.1% | 10.6 ± 0.1% | 20.4 min | 67.8 µL/min/mg | 35.4 ± 3.1% | 35.4 ± 3.1% | 240 nM and 243 nM | O=C(Nc1ccc2c(c1)CCN2Cc1ccc(F)cc1)NC12C[C@H]3C[C@@H](C1)C[C@@H](C2)C3 [Compound 6, 1-((3S,5S,7S)-Adamantan-1-yl)-3-(1-(4-fluorobenzyl)indolin-5-yl)urea] | – |
| 96.2 ± 3.4% | 97.0 ± 2.3% | 16.6 ± 1.4% | 9.3 ± 0.6% | 5.7 ± 0.2% | 16 min | 86.6 µL/min/mg | 65.1 ± 6.2% | 65.1 ± 6.2% | – | O=C(NCC12C[C@H]3C[C@@H](C1)C[C@@H](C2)C3)Nc1ccc2c(ccn2CCc2ccc(F)cc2)c1 [Compound 30, 1-(((3R,5R,7R)-Adamantan-1-yl)methyl)-3-(1-(4-fluorophenethyl)-1H-indol-5-yl)urea] | – |
| 98.2 ± 2.0% | 96.2 ± 2.8% | 20.4 ± 1.8% | 11.9 ± 0.6% | 2.4 ± 0.4% | – | 118 µL/min/mg | 58.1 ± 5.5% | 58.1 ± 5.5% | – | O=C(NCC12C[C@H]3C[C@@H](C1)C[C@@H](C2)C3)Nc1ccc2c(ccn2C(=O)c2ccc(F)cc2)c1 [Compound 36, 1-(((3R,5R,7R)-Adamantan-1-yl)methyl)-3-(1-(4-fluorobenzoyl)-1H-indol-5-yl)urea] | 11.8 min |

| SMILES | mouse plasma stability (Mouse plasma stability; 1.0 h) | mouse plasma stability (Mouse plasma stability; 2.0 h) | UGTs/CYPs dual-activity mouse liver microsomal stability ([1]; 0.25 h, 0.5 mg mL–1 microsomes) | UGTs/CYPs dual-activity mouse liver microsomal stability ([1]; 0.5 h) | UGTs/CYPs dual-activity mouse liver microsomal stability ([1]; 1.0 h) | half-life at 5 µM [1] | microsomal CLint at 1 h, 5 µM [1] | remaining activity at 10 µM (5-LOX; human activated PMNL) | remaining activity (5-LOX) | IC50 (5-LOX; human activated PMNL) | half-life at 1 h, 5 µM [1] |
| --- | --- | --- | --- | --- | --- | --- | --- | --- | --- | --- | --- |
| CC(C)c1ccc(Cn2ccc3cc(NC(=O)NCC45C[C@H]6C[C@@H](C4)C[C@@H](C5)C6)ccc32)cc1 [Compound 28, 1-(((3R,5R,7R)-Adamantan-1-yl)methyl)-3-(1-(4-isopropylbenzyl)-1H-indol-5-yl)urea] | 98.4 ± 3.3% | 101.3 ± 3.8% | 91.5 ± 2.2% | 69.8 ± 2.9% | 53.1 ± 2.8% | – | 22 µL/min/mg | 93.6 ± 4.8% | 93.6 ± 4.8% | – | 62.9 min |
